Assay results: patent publication US20040006236A1, “Diaminopropionic acid derivatives” (priority 1999, published 2004)
pIC50: −log10 of the molar value.

Key:
[1] = target: T1, ICAM-1 binding to immobilized Mac-1 (Homo sapiens, UniProt P05107+P11215); assay: Mac-1/ICAM-1 screening assay (solid-phase ELISA); settings: read-out: Mac-1/ICAM-1 Protein-Protein Assay IC50
T1 construct: made in house; host or cells: transfected 293 cells (Mac-1)
How it was run: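 Competitive solid-phase ELISA: membrane Mac-1 from transfected 293 cells coated at 3 μg/mL in 20 mM Hepes pH 7.2/0.14 M NaCl/1 mM MnCl2; compounds (0.12 nM-20 μM, 1:4 series) plus 5dICAM-Ig (40 μg/mL, added) 2 h at 37° C. Bound ICAM-Ig detected with HRP anti-human IgG Fc, TMB, A450; IC50 reported.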

[2] = tested on: T lymphocyte proliferation (C57BI/6 spleen cells with irradiated BALB/c spleen cells); assay: Mixed lymphocyte reaction (MLR), one-way; format: cell-based, mice; settings: Mus musculus, T-lymphocyte; read-out: MLR IC50
How it was run: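 One-way murine MLR: C57BI/6 responder splenocytes proliferate against irradiated BALB/c stimulators while exposed to serially diluted antagonists in supplemented RPMI1640 for 3 days. Proliferation read as [3H]-thymidine uptake over a final 6 h pulse (0.5 μCi/well), scintillation counted.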

T1 sequence (P05107 23-769, other chains not shown): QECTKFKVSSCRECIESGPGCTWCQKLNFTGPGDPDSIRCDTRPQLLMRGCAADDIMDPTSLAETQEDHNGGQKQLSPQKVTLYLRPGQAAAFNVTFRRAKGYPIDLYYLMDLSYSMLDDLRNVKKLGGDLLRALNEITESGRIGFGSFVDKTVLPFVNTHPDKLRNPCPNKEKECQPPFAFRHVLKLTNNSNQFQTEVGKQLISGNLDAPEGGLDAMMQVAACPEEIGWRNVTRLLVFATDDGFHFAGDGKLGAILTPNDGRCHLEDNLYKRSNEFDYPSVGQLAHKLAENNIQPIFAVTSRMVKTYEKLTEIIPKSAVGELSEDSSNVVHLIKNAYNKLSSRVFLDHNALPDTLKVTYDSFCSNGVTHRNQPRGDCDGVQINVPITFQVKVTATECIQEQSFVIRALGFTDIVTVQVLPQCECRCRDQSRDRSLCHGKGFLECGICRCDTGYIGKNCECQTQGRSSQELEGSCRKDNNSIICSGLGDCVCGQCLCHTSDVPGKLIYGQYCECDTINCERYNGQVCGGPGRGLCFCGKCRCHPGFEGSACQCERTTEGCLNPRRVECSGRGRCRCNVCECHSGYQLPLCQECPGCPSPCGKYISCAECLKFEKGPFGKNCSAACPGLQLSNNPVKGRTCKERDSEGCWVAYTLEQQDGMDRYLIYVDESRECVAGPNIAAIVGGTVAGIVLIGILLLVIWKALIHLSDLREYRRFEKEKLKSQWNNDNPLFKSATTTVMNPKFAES

pIC50 [1]: 7.60
Compound: O=C(CC1CCCC1)NC[C@H](NC(=O)c1ccc(C(=O)NCc2cccc(O)c2)cc1Cl)C(=O)O [Example 77]
pIC50 [2]: 6.15
